Legend:
Format in all cases: in vivo
[1] = tested on: qing-geng-cai young plants; experiment: Dwarfing test of qing-geng-cai young plant; conditions: for Plant Height / Dwarfing Rate: 5 ml per cell on 5th day, measured 20th day; for Dwarfing Rate: vs comparative group
Protocol: (§1) 50 g of sodium tripolyphosphate was dissolved in 400 ml of distilled water at 80° C., 17.5 g of cinnamic acid was added to the sodium tripolyphosphate solution and dissolved by stirring, the resultant solution was diluted with distilled water until the total volume of solution was 500 ml, and thus 3.5% cinnamic acid aqueous solution (pH 6.5) was prepared. The aqueous solution was further diluted with distilled water 70 times or 17.5 times, and 0.05% cinnamic acid aqueous solution and 0.2% cinnamic acid aqueous solution were prepared, respectively.
(§2) Nursery soil for house use was filled into paper joint pots (each with 24 cells: 34×43×50 mm/cell), water was sufficiently given to the soil, and seeds of carrots were sowed. After seeding, the pot was placed in the same greenhouse as described above to sprout. Subsequently, on the 5th day, the cinnamic aqueous acid solutions were added to the nursery soil in the joint pots. One of the joint pots (24 cells) was prepared as a 0.05% cinnamic acid aqueous solution addition group, and 5 ml of the 0.05% cinnamic acid aqueous solution was added to the nursery soil of each cell. Another one of the join pots was prepared as a 0.2% cinnamic acid aqueous solution addition group, and 5 ml of the 0.2% cinnamic acid aqueous solution was added to the nursery soil of each cell. The other one of the joint pots was prepared as a comparative group in which 5 ml of water is added to each cell, instead of the cinnamic acid aqueous solution. Subsequently, the cultivation of carrot young plants in each group was continued under general conditions. On the 27th day, the heights of young plants in each group were measured, the dwarfing rate (%) was calculated, and the dwarfing effect of cinnamic acid aqueous solution on carrot young plants was examined. […].
In the same way as in Example 5 except that seeds of […] were sowed, and that plant heights were measured on the 20th day, the dwarfing effect of cinnamic acid aqueous solution on qing-geng-cai young plants was examined. […]

[2] = tested on: Japanese radish young plants; experiment: Dwarfing test of Japanese radish young plant; conditions: for Plant Height / Dwarfing Rate: 5 ml per cell on 5th day, measured 27th day; for Dwarfing Rate: vs comparative group
Protocol: as §1, §2
In the same way as in Example 5 except that seeds of Japanese radish were sowed, the dwarfing effect of cinnamic acid aqueous solution on Japanese radish young plants was examined. […]

cauliflower young plants = experiment: Dwarfing test of cauliflower young plant; conditions: for Plant Height / Dwarfing Rate: 5 ml per cell on 4th day, measured 20th day; for Dwarfing Rate: vs comparative group
Protocol: [The source words this procedure for another target and says it was used here with some conditions changed.] as §1, §2

turnip young plants = experiment: Dwarfing test of turnip young plant; conditions: for Plant Height / Dwarfing Rate: 5 ml per cell on 4th day, measured 20th day; for Dwarfing Rate: vs comparative group
Protocol: as §1, §2
In the same way as in Example 12 except that seeds of color turnip were sowed, the dwarfing effect of cinnamic acid aqueous solution on turnip young plants was examined. […]

tomato young plants = experiment: Dwarfing test of tomato young plant; conditions: for Plant Height / Dwarfing Rate: 5 ml per cell on 7th day, measured 20th day; for Dwarfing Rate: vs comparative group
Protocol: as §1, §2
In the same way as in Example 12 except that seeds of tomato were sowed, and that the cinnamic acid solutions were added to the nursery soil of the joint pot on the 7th day, the dwarfing effect of cinnamic acid aqueous solution on tomato young plants was examined. […]

melon young plants = experiment: Dwarfing test of melon young plant; conditions: for Plant Height / Dwarfing Rate: 5 ml per cell on 7th day, measured 25th day; for Dwarfing Rate: vs comparative group
Protocol: After seeding, the pot was placed in the same greenhouse as described above to sprout. Subsequently, on the 5th day, the cinnamic aqueous acid solutions were added to the nursery soil in the joint pots. One of the joint pots (24 cells) was prepared as a 0.05% cinnamic acid aqueous solution addition group, and 5 ml of the 0.05% cinnamic acid aqueous solution was added to the nursery soil of each cell. Another one of the join pots was prepared as a 0.2% cinnamic acid aqueous solution addition group, and 5 ml of the 0.2% cinnamic acid aqueous solution was added to the nursery soil of each cell. […] Subsequently, the cultivation of carrot young plants in each group was continued under general conditions. On the 27th day, the heights of young plants in each group were measured, the dwarfing rate (%) was calculated, and the dwarfing effect of cinnamic acid aqueous solution on carrot young plants was examined. From the results in Table 5, it became evident that the 0.05% and 0.2% cinnamic acid aqueous solutions are effective in dwarfing carrot young plants. In the same way as in Example 5 except that seeds of cauliflower were sowed, the cinnamic acid solutions were added to the nursery soil in the joint pot on the 4th day, and that heights of young plants in each group were measured on the 20th day, the dwarfing effect of cinnamic acid aqueous solution on cauliflower young plants was examined. From the results in Table 12, it became evident that the cinnamic acid aqueous solutions are effective in dwarfing cauliflower young plants. In the same way as in Example 12 except that seeds of tomato were sowed, and that the cinnamic acid solutions were added to the nursery soil of the joint pot on the 7th day, the dwarfing effect of cinnamic acid aqueous solution on tomato young plants was examined. From the results in Table 17, it became evident that the cinnamic acid aqueous solutions are effective in dwarfing tomato young plants. In the same way as in Example 17 except that seeds of melon were sowed, and that plant heights were measured on the 25th day, the dwarfing effect of cinnamic acid aqueous solution on melon young plants was examined. From the results in Table 25, it became evident that the cinnamic acid aqueous solutions are effective in dwarfing melon young plants.

O=C(O)C=Cc1ccccc1 [cinnamic acid]
Plant Height ([1]; 0.05% aqueous solution): 6.3 cm | Dwarfing Rate ([1]; 0.05% aqueous solution): 7.4% | Plant Height ([1]; 0.2% aqueous solution): 4.3 cm | Dwarfing Rate ([1]; 0.2% aqueous solution): 36.8% | dwarfing effect ([1]; qing-geng-cai young plants, 0.05% and 0.2% aqueous solutions): effective | Plant Height ([2]; 0.05% aqueous solution): 15.3 cm | Dwarfing Rate ([2]; 0.05% aqueous solution): 1.9% | Plant Height ([2]; 0.2% aqueous solution): 10.9 cm | Dwarfing Rate ([2]; 0.2% aqueous solution): 30.1% | dwarfing effect ([2]; Japanese radish young plants, 0.05% and 0.2% aqueous solutions): effective | Plant Height (cauliflower young plants; 0.05% aqueous solution): 6.8 cm | Dwarfing Rate (cauliflower young plants; 0.05% aqueous solution): 22.7% | Plant Height (cauliflower young plants; 0.2% aqueous solution): 5.0 cm | Dwarfing Rate (cauliflower young plants; 0.2% aqueous solution): 43.2% | dwarfing effect (cauliflower young plants; cauliflower young plants, 0.05% and 0.2% aqueous solutions): effective | Plant Height (turnip young plants; 0.05% aqueous solution): 7.0 cm | Dwarfing Rate (turnip young plants; 0.05% aqueous solution): 23.1% | Plant Height (turnip young plants; 0.2% aqueous solution): 6.0 cm | Dwarfing Rate (turnip young plants; 0.2% aqueous solution): 34.1% | dwarfing effect (turnip young plants; turnip young plants, 0.05% and 0.2% aqueous solutions): effective | Plant Height (tomato young plants; 0.05% aqueous solution): 7.3 cm | Dwarfing Rate (tomato young plants; 0.05% aqueous solution): 20.7% | Plant Height (tomato young plants; 0.2% aqueous solution): 6.1 cm | Dwarfing Rate (tomato young plants; 0.2% aqueous solution): 33.7% | dwarfing effect (tomato young plants; tomato young plants, 0.05% and 0.2% aqueous solutions): effective | Plant Height (melon young plants; 0.05% aqueous solution): 6.3 cm | Dwarfing Rate (melon young plants; 0.05% aqueous solution): 4.5% | Plant Height (melon young plants; 0.2% aqueous solution): 4.1 cm | Dwarfing Rate (melon young plants; 0.2% aqueous solution): 37.9% | dwarfing effect (melon young plants; melon young plants, 0.05% and 0.2% aqueous solutions): effective

Source: patent US20040200144A1, “Plant growth regulator and a method of producing the regulator” (Dainichiseika Color & Chemicals Mfg. Co., Ltd., priority 2003, published 2004)
